Assay results published in ChEMBL document CHEMBL1134710, “The C4 hydroxyl group of phorbol esters is not necessary for protein kinase C binding” (Bioorg Med Chem Lett, 2001).

Key:
HL-60 [1] = experiment: Compound was tested in vitro for its ability to induce superoxide generation in HL-60 cells at concentration 10e-6 M; format: functional, Homo sapiens
HL-60 [2] = experiment: (§1) Compound was tested in vitro for percent EBV0EA-inducing activity in […] cells at concentration 10e-6 M; format: functional, cell-based, Homo sapiens
HL-60 [3] = experiment: Compound was tested in vitro for percent EBV0EA-inducing activity in […] cells at concentration 10e-5 M; format: functional, cell-based, Homo sapiens
HL-60 [4] = experiment: Compound was tested in vitro for its ability to induce superoxide generation in HL-60 cells at concentration 10e-7 M; format: functional, Homo sapiens
[5] = molecular target: T1, Protein kinase C alpha type (Homo sapiens, UniProt P17252); experiment: Displacement of 3[H]PDBu from Protein kinase C alpha C1b domain
[6] = molecular target: T2, Protein kinase C beta type (Homo sapiens, UniProt P05771); experiment: Displacement of 3[H]PDBu from Protein kinase C beta C1b domain
[7] = molecular target: T3, Protein kinase C delta type (Homo sapiens, UniProt Q05655); experiment: Displacement of 3[H]PDBu from Protein kinase C delta C1b domain
HL-60 [8] = experiment: Compound was tested in vitro for percent EBV0EA-inducing activity in […] cells at concentration 10e-7 M; format: functional, Homo sapiens
[9] = molecular target: T4, Protein kinase C epsilon type (Homo sapiens, UniProt Q02156); experiment: Displacement of 3[H]PDBu from Protein kinase C epsilon C1a domain
T4 sequence (Q02156 whole entry): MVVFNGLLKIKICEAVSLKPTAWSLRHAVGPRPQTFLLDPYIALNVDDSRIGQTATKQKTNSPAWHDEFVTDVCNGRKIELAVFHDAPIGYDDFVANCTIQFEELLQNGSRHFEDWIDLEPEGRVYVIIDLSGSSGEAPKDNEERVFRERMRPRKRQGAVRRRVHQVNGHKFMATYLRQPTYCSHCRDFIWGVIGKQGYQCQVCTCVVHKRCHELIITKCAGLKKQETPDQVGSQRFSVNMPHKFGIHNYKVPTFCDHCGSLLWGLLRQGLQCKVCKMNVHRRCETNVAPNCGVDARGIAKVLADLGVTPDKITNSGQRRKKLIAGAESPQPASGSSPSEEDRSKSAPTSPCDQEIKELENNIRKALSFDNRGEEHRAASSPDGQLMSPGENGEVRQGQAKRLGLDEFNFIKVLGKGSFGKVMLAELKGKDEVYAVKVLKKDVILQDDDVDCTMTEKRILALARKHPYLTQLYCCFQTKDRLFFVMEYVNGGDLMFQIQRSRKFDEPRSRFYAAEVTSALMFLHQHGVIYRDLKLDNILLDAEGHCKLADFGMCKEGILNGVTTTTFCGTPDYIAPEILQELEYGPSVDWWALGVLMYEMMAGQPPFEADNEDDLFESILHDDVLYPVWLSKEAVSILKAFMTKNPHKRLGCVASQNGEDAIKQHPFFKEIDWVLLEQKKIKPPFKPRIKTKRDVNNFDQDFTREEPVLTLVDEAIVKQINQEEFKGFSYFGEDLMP

[10] = molecular target: T1, Protein kinase C alpha type; experiment: Displacement of 3[H]PDBu from Protein kinase C alpha C1a domain
HL-60 [11] = experiment: Compound was tested in vitro for percent EBV0EA-inducing activity in […] cells at concentration 10e-9 M; format: functional, Homo sapiens
HL-60 [12] = experiment: Compound was tested in vitro for its ability to induce superoxide generation in HL-60 cells at concentration 10e-8 M; format: functional, Homo sapiens
[13] = molecular target: T5, Protein kinase C gamma type (Homo sapiens, UniProt P05129); experiment: Displacement of 3[H]PDBu from Protein kinase C gamma C1a domain
HL-60 [14] = experiment: Compound was tested in vitro for percent EBV0EA-inducing activity in […] cells at concentration 10e-8 M; format: functional, Homo sapiens
[15] = molecular target: T6, Protein kinase C eta type (Homo sapiens, UniProt P24723); experiment: Displacement of 3[H]PDBu from Protein kinase C eta C1b domain
[16] = molecular target: T6, Protein kinase C eta type; experiment: Displacement of 3[H]PDBu from Protein kinase C eta C1a domain
[17] = molecular target: T4, Protein kinase C epsilon type; experiment: Displacement of 3[H]PDBu from Protein kinase C epsilon C1b domain
[18] = molecular target: T2, Protein kinase C beta type; experiment: Displacement of 3[H]PDBu from Protein kinase C beta C1a domain
[19] = molecular target: Protein kinase C theta type (Homo sapiens, UniProt Q04759); experiment: Displacement of 3[H]PDBu from Protein kinase C theta C1b domain
[20] = molecular target: T5, Protein kinase C gamma type; experiment: Displacement of 3[H]PDBu from Protein kinase C gamma C1b domain
[21] = molecular target: T3, Protein kinase C delta type; experiment: Displacement of 3[H]PDBu from Protein kinase C delta C1a domain
HL-60 [22] = experiment: as §1; format: functional, Homo sapiens
HL-60 [23] = experiment: Compound was tested in vitro for its ability to induce superoxide generation in HL-60 cells at concentration 10e-9 M; format: functional, Homo sapiens

T2 sequence (P05771 whole entry, the tested form may be a part): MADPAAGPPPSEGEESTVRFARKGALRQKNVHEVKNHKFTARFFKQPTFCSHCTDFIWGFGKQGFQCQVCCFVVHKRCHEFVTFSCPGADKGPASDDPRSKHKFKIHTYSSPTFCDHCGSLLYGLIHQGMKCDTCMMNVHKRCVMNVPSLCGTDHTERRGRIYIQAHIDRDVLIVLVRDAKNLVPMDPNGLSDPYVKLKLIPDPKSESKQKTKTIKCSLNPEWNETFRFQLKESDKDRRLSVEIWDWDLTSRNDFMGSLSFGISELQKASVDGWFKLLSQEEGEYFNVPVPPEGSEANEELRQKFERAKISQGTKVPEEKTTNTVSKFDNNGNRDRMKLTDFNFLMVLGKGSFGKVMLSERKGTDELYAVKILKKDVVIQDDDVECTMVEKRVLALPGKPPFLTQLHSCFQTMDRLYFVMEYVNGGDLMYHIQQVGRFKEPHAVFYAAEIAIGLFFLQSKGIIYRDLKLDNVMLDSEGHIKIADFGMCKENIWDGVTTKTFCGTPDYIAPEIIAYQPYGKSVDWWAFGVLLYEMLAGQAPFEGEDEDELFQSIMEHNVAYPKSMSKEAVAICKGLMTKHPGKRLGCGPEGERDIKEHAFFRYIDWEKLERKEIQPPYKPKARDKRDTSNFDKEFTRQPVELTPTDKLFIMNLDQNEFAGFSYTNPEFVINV
T3 sequence (Q05655 whole entry, the tested form may be a part): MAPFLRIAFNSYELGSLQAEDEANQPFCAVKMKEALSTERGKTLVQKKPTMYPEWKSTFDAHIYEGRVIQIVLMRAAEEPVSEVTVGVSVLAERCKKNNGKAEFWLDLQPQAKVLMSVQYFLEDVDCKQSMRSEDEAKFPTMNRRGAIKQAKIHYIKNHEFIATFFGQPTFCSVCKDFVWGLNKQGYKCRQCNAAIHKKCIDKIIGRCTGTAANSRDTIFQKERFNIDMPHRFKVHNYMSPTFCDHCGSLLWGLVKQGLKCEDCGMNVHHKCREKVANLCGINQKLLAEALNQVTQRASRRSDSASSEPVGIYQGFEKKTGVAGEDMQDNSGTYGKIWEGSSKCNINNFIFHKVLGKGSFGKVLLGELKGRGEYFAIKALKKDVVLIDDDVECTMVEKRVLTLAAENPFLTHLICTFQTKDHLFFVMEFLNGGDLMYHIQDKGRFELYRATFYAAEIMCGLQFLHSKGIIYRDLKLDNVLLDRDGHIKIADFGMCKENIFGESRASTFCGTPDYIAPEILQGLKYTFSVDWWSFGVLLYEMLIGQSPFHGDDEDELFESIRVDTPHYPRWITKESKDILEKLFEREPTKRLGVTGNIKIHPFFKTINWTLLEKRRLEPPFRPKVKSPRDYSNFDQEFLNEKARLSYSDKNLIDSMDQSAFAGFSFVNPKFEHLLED
T6 sequence (P24723 whole entry, the tested form may be a part): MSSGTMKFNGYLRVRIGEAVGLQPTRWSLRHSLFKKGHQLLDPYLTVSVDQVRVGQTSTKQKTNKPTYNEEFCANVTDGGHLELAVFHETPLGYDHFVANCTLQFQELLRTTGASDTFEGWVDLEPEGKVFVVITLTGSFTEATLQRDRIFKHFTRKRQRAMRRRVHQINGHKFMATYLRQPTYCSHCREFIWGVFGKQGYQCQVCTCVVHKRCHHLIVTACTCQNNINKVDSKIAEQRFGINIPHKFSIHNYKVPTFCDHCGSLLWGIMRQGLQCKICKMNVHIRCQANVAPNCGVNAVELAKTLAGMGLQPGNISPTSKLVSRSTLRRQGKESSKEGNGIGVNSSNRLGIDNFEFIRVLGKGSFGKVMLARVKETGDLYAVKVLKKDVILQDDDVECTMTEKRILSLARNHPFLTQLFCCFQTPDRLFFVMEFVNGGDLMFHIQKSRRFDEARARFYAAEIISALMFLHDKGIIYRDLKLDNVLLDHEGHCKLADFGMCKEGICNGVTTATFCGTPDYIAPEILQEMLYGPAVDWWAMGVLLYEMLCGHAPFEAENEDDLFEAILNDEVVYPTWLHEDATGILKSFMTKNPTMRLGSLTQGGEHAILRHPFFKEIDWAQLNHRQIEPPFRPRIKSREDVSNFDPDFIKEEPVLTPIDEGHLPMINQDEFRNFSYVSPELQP
Chain of Protein kinase C theta type (Q04759 whole entry, the tested form may be a part): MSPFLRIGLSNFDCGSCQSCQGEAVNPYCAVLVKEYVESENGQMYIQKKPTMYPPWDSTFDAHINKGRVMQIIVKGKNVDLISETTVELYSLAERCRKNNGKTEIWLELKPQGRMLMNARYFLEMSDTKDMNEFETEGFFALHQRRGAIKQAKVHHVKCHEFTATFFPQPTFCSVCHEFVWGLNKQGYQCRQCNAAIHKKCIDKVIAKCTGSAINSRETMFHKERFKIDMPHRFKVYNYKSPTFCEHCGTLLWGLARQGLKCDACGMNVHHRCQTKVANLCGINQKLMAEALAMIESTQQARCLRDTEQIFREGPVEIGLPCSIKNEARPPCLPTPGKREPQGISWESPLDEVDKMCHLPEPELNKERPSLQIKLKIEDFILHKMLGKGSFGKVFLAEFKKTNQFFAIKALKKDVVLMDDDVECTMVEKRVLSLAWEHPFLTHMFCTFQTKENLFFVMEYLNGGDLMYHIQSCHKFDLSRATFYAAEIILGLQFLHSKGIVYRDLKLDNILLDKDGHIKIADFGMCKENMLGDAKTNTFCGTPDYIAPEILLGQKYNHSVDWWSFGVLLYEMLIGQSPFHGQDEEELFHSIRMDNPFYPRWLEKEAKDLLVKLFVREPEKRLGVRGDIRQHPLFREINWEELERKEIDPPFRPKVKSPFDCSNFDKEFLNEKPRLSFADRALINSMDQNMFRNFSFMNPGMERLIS

SMILES: CCCC(=O)O[C@@H]1[C@@H](C)[C@]2(O)[C@@H]3C=C(C)C(=O)[C@@H]3CC(CO)=C[C@H]2[C@@H]2C(C)(C)[C@]12OC(=O)CCC
- Activity (HL-60 [1]): 0.05 nM min-1 (10e-6*cells)-1
- Activity (HL-60 [2]): 2.7%
- Activity (HL-60 [3]): 17.9%

SMILES: CCCC(=O)O[C@@H]1[C@@H](C)[C@]2(O)[C@@H]3C=C(C)C(=O)[C@H]3CC(CO)=C[C@H]2[C@@H]2C(C)(C)[C@]12OC(=O)CCC
- Activity (HL-60 [4]): 3.16 nM min-1 (10e-6*cells)-1
- Ki [5]: 13.9 nM
- Ki [6]: 2.23 nM
- Ki [7]: 0.55 nM
- Activity (HL-60 [8]): 31.1%
- Ki [9]: 4.49 nM
- Ki [10]: 4.05 nM
- Activity (HL-60 [11]): 1.2%
- Activity (HL-60 [1]): 3.14 nM min-1 (10e-6*cells)-1
- Activity (HL-60 [12]): 0.08 nM min-1 (10e-6*cells)-1
- Ki [13]: 5.23 nM
- Activity (HL-60 [14]): 7%
- Ki [15]: 0.35 nM
- Ki [16]: 14.9 nM
- Ki [17]: 0.58 nM
- Ki [18]: 2.78 nM
- Ki [19]: 0.73 nM
- Ki [20]: 1.84 nM
- Ki [21]: 70.2 nM
- Activity (HL-60 [22]): 25.6%
- Activity (HL-60 [23]): 0.11 nM min-1 (10e-6*cells)-1

SMILES: CCCC(=O)O[C@@H]1[C@@H](C)[C@@]2(O)[C@@H](C=C(CO)C[C@]3(O)C(=O)C(C)=C[C@@H]23)[C@@H]2C(C)(C)[C@]12OC(=O)CCC
- Activity (HL-60 [4]): 3.11 nM min-1 (10e-6*cells)-1
- Activity (HL-60 [8]): 33.1%
- Activity (HL-60 [11]): 3.6%
- Activity (HL-60 [1]): 3.32 nM min-1 (10e-6*cells)-1
- Activity (HL-60 [12]): 0.11 nM min-1 (10e-6*cells)-1
- Activity (HL-60 [14]): 10.8%
- Activity (HL-60 [22]): 29.9%
- Activity (HL-60 [23]): 0 nM min-1 (10e-6*cells)-1
